In patent publication US6727227B1, “Tetrapetide revealing geroprotective effect, pharmacological substance on its basis, and the method of its application” (Obschestvo S Ogranichennoi Otvetstven-Nostiju “Klinika …, priority 2002, dated 2004):
Marks after values point to notes of the source that are not given here. Residues, ends and D or L forms follow the SMILES beside them.

Legend:
Format in all cases: in vivo
[1] = test system: Drosophila melanogaster of LA strain; assay: Content of lipid peroxide oxidation products (conjugated hydro-peroxides), LA strain
Description: The impact produced by L-Ala-L-Glu-L-Asp-Gly tetrapeptide (SEQ ID NO: 1) on catalase activity, the content of the products of lipid peroxide oxidation (LPO), life span, and the ageing rate were studied in Drosophila melanogaster of LA strain.
L-Ala-L-Glu-L-Asp-Gly tetrapeptide (SEQ ID NO: 1) was applied in the larvae of the 3rd age in dose 0.00001% of the culture medium weight, which constituted approximately 0.015 mg/100 ml. Catalase activity was estimated by generally accepted methods in the homogenates of adult 14 days old flies. The experiment was carried out with a subsequent repetition.
Regression and dispersal analyses served as the basic technique of statistic processing. The authenticity of differences was confirmed by the method of minimal relevant diversity.

[2] = test system: patients suffering aspirin bronchial asthma; assay: Clinical application in patients suffering aspirin bronchial asthma
[3] = test system: Drosophila melanogaster of EA strain; assay: Life span and ageing rate, EA strain
Description: Drosophila melanogaster of EA strain served as a model for studying the influence of L-Ala-L-Glu-L-Asp-Gly tetrapeptide (SEQ ID NO: 1) on catalase activity, tissue chemoluminescence, and life span.
One-day old flies were placed in test tubes, 10 individuals of the same sex in each. Every 5 to 7 days they were transferred to a fresh medium, taking into account the number of deceased individuals. The average and maximal life spans were defined. The ageing rate was calculated by the parameters of Gomperz equation.
L-Ala-L-Glu-L-Asp-Gly tetrapeptide (SEQ ID NO: 1) was applied in the larvae of the 3rd age in dose 0.00001% of the culture medium weight, which constituted approximately 0.015 mg/100 ml. Catalase activity and the intensity of chemoluminescence were estimated in the homogenates of adult 7-day old flies by generally accepted methods. The experiment was conducted with a subsequent 5 repetition.
Regression and dispersal analyses served as the basic technique of statistic processing.

white outbred male mice = assay: Acute toxicity according to Kerber
Description: The purpose of the study was to define tolerable toxic doses of the preparation, to estimate the stage and character of pathologic alterations in various organs and systems of the organism, and to identify the correlation between the toxic dose-related effect and the duration of the drug application.
The investigation was carried out on 66 white outbred male mice weighing 20 to 23 g, which were kept under standard regimen and fed upon standard rations in vivarium conditions. The animals were randomly divided into 6 equal groups of 11 mice in each. The animals were exposed to a single administration of the drug intramuscularly, 0.25 ml in doses 1 mg/kg, 2 mg/kg, 3 mg/kg, 4 mg/kg and 5 mg/kg (several thousand times exceeding the therapeutic dose recommended for clinical trial). Control animals were administered the same amount of sodium chloride.

[4] = 10 μg intramuscularly daily for 10 days
[5] = single intramuscular administration, 1-5 mg/kg

C[C@H](N)C(=O)N[C@@H](CCC(=O)O)C(=O)N[C@@H](CC(=O)O)C(=O)NCC(=O)O [L-Ala-L-Glu-L-Asp-Gly tetrapeptide, L-alanyl-L-glutamyl-L-aspartyl-glycine] (H-AEDG-OH)
Content of conjugated hydro-peroxides ([1]; females): 1.290* nmole/g of tissue
Content of conjugated hydro-peroxides ([1]; males): 1.202 nmole/g of tissue
Clinical state by the end of the treatment [2, 4]: improvement in clinical state by the end of the treatment was observed in the overwhelming majority of patients
External respiratory function (VBC, MVexhR, FEV1, TV/TLC) immediately after treatment [2, 4]: did not reveal any essential alterations
Reaction to Berotek on the level of distal bronchi [2, 4]: showed an improvement
Excretion of 6-sulfatoxymelatonin in urine ([2]; at night and in the daytime): increased
ALS ([3]; females, Experiment 1): 16.4 ± 1.68 days
G 10^2 ([3]; females, Experiment 1): 3.6 ± 0.61* days^−1
LSmax ([3]; females, Experiment 1): 39 days
LnR0 ([3]; females, Experiment 1): -3.1 ± 0.21 day⁻¹
ALS ([3]; females, Experiment 2): 16.7 ± 0.70 days
G 10^2 ([3]; females, Experiment 2): 4.2 ± 1.68 days^−1
LSmax ([3]; females, Experiment 2): 41 days
LnR0 (Gompertz parameter) ([3]; females, Experiment 2): -3.6 ± 0.41 day⁻¹
ALS ([3]; males, Experiment 1): 10.8 ± 1.09 days
G 10^2 ([3]; males, Experiment 1): 3.3 ± 2.25 days^−1
LSmax ([3]; males, Experiment 1): 39 days
LnR0 (Gompertz parameter) ([3]; males, Experiment 1): -2.3 ± 0.26 day⁻¹
ALS ([3]; males, Experiment 2): 17.4 ± 0.88 days
G 10^2 ([3]; males, Experiment 2): 4.7 ± 0.94* days^−1
LSmax ([3]; males, Experiment 2): 45 days
LnR0 (Gompertz parameter) ([3]; males, Experiment 2): -3.0 ± 0.28 day⁻¹
Acute toxic reactions (white outbred male mice; doses several thousand times exceeding the therapeutic one): does not induce acute toxic reactions
Alterations in general state, behaviour, locomotor activity, hair and skin integument, physiological discharges (white outbred male mice; [5]): No alterations
Deaths within 72 hours and in 14 days (white outbred male mice; [5]): none of the animals in either of the groups died
